According to patent US8802597B2, “Herbicidal pyrimidines” (E I du Pont de Nemours and Company, priority 2003, dated 2014):
Where two headings read alike, the source gives them in different places.

Experiments:
Format in all cases: in vivo
rice (Oryza sativa) = test: Test B flooded paddy test; conditions: Oryza sativa, Flood, 1000 g ai/ha; scale 0 to 100; read-out: Plant response rating, Rice
How it was run: (§1)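 Rice, umbrella sedge, duck salad and barnyardgrass grown to 2-leaf stage under flooded paddy conditions and treated with formulated test chemicals. Kept in greenhouse 13–15 days, then visually rated against untreated controls on a 0–100 scale (0 no effect, 100 complete control).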

[1] = tested on: duck salad (Heteranthera limosa); test: Test B flooded paddy test; conditions: Heteranthera limosa, Flood, 1000 g ai/ha; scale 0 to 100; read-out: Plant response rating, Ducksalad
How it was run: as §1

[2] = tested on: barnyardgrass (Echinochloa crus-galli); test: Test B flooded paddy test; conditions: Echinochloa crus-galli, Flood, 1000 g ai/ha; scale 0 (no effect) to 100 (complete control); read-out: Plant response rating, Barnyardgrass
How it was run: as §1

[3] = tested on: umbrella sedge (Cyperus difformis); test: Test B flooded paddy test; conditions: Cyperus difformis, Flood, 1000 g ai/ha; scale 0 to 100; read-out: Plant response rating, Sedge, Umbrella
How it was run: as §1

[4] = tested on: blackgrass (Alopecurus myosuroides); test: Test B postemergence; conditions: Alopecurus myosuroides, post-emergence
How it was run: (§2)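 Visual rating, 0 (no effect) to 100 (complete control) versus controls, taken 13–15 days after treatment in greenhouse. Compounds formulated in non-phytotoxic solvent plus surfactant; pre: sprayed after seeding; post: plants at 1- to 4-leaf stage, 2–18 cm.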

wild oat (Avena fatua) = test: Test B postemergence; conditions: Avena fatua, post-emergence
How it was run: as §2

[5] = tested on: crabgrass (Digitaria sanguinalis); test: Test B pre/postemergence; conditions: Digitaria sanguinalis; for pest or weed control at 62 g/ha: 62 g ai/ha; for pest or weed control at 250 g/ha: 250 g ai/ha
How it was run: as §2

[6] = tested on: cocklebur (Xanthium strumarium); test: Test B pre/postemergence; conditions: Xanthium strumarium; for pest or weed control at 62 g/ha: 62 g ai/ha; for pest or weed control at 250 g/ha: 250 g ai/ha
How it was run: as §2

[7] = tested on: velvetleaf (Abutilon theophrasti); test: Test B pre/postemergence; conditions: Abutilon theophrasti; for pest or weed control at 62 g/ha: 62 g ai/ha; for pest or weed control at 250 g/ha: 250 g ai/ha
How it was run: as §2

[8] = tested on: wheat (Triticum aestivum); test: Test B pre/postemergence; conditions: Triticum aestivum; for plant injury at 62 g/ha: 62 g ai/ha; for plant injury at 250 g/ha: 250 g ai/ha
How it was run: as §2

[9] = tested on: barnyardgrass (Echinochloa crus-galli); test: Test B pre/postemergence; conditions: Echinochloa crus-galli; for pest or weed control at 62 g/ha: 62 g ai/ha; for pest or weed control at 250 g/ha: 250 g ai/ha
How it was run: as §2

[10] = tested on: pigweed (Amaranthus retroflexus); test: Test B pre/postemergence; conditions: Amaranthus retroflexus; for pest or weed control at 62 g/ha: 62 g ai/ha; for pest or weed control at 250 g/ha: 250 g ai/ha
How it was run: as §2

[11] = tested on: giant foxtail (Setaria faberii); test: Test B pre/postemergence; conditions: Setaria faberi; for pest or weed control at 62 g/ha: 62 g ai/ha; for pest or weed control at 250 g/ha: 250 g ai/ha
How it was run: as §2

[12] = tested on: Surinam grass (Brachiaria decumbens); test: Test B pre/postemergence; conditions: Urochloa decumbens; for pest or weed control at 62 g/ha: 62 g ai/ha; for pest or weed control at 250 g/ha: 250 g ai/ha
How it was run: as §2

[13] = tested on: morningglory (Ipomoea coccinea); test: Test B pre/postemergence; conditions: Ipomoea; for pest or weed control at 62 g/ha: 62 g ai/ha; for pest or weed control at 250 g/ha: 250 g ai/ha
How it was run: as §2

[14] = tested on: lambsquarters (Chenopodium album); test: Test B pre/postemergence; conditions: Chenopodium album; for pest or weed control at 62 g/ha: 62 g ai/ha; for pest or weed control at 250 g/ha: 250 g ai/ha
How it was run: as §2

corn (Zea mays) = test: Test B pre/postemergence; conditions: Zea mays; for Corn plant response rating (crop injury, 0 = no effect, 100 = complete kill) at 250 g/ha: 250 g ai/ha
How it was run: as §2

[15] = pre-emergence, Preemergence, scale 0 to 100 (0 no effect, 100 complete control), read-out: Plant response rating, Wheat
[16] = pre-emergence, Preemergence, scale 0 to 100 (0 no effect, 100 complete control), read-out: Plant response rating, Barnyardgrass

Work on `CCOC(=O)c1nc(C2CC2)nc(N)c1Br` [Compound 1, ethyl 6-amino-5-bromo-2-cyclopropyl-4-pyrimidinecarboxylate] yielded a plant injury at 1000 g/ha (rice (Oryza sativa)) of 70%, a pest or weed control at 1000 g/ha [1] of 80% and a pest or weed control at 1000 g/ha [2] of 80%. For the same compound, the pest or weed control at 1000 g/ha [3] was 20%, the pest or weed control at 62 g/ha ([4]; 62 g ai/ha, scale 0 to 100 (0 no effect, 100 complete control), read-out: Blackgrass plant response rating) was 40% and the pest or weed control at 250 g/ha ([4]; 250 g ai/ha, scale 0 to 100, read-out: Plant response rating, Blackgrass) was 70%. It also gave a pest or weed control at 62 g/ha (wild oat (Avena fatua); 62 g ai/ha, scale 0 to 100 (0 no effect, 100 complete control), read-out: Oat, Wild plant response rating) of 20%, a pest or weed control at 250 g/ha (wild oat (Avena fatua); 250 g ai/ha, scale 0 to 100, read-out: Plant response rating, Oat, Wild) of 60% and a pest or weed control at 62 g/ha ([5]; post-emergence, Postemergence, scale 0 to 100 (0 no effect, 100 complete control), read-out: Crabgrass plant response rating) of 70%. It also gave a pest or weed control at 250 g/ha ([5]; post-emergence, Postemergence, scale 0 to 100, read-out: Plant response rating, Crabgrass) of 90%, a pest or weed control at 62 g/ha ([5]; pre-emergence, Preemergence, scale 0 to 100, 0 no effect, 100 complete control, read-out: Plant response rating, Crabgrass) of 90% and a pest or weed control at 250 g/ha ([5]; pre-emergence, Preemergence, scale 0 to 100 (0 no effect, 100 complete control), read-out: Plant response rating, Crabgrass) of 90%. It also gave a pest or weed control at 62 g/ha ([6]; post-emergence, Postemergence, scale 0 to 100 (0 no effect, 100 complete control), read-out: Cocklebur plant response rating) of 90%, a pest or weed control at 250 g/ha ([6]; post-emergence, Postemergence, scale 0 to 100, read-out: Plant response rating, Cocklebur) of 90% and a pest or weed control at 62 g/ha ([6]; pre-emergence, Preemergence, scale 0 to 100, 0 no effect, 100 complete control, read-out: Plant response rating, Cocklebur) of 90%. The pest or weed control at 250 g/ha ([6]; pre-emergence, Preemergence, scale 0 to 100 (0 no effect, 100 complete control), read-out: Plant response rating, Cocklebur) was 100%, the pest or weed control at 62 g/ha ([7]; post-emergence, Postemergence, scale 0 to 100 (0 no effect, 100 complete control), read-out: Velvetleaf plant response rating) was 90% and the pest or weed control at 250 g/ha ([7]; post-emergence, Postemergence, scale 0 to 100, read-out: Plant response rating, Velvetleaf) was 90%. For the same compound, the pest or weed control at 62 g/ha ([7]; pre-emergence, Preemergence, scale 0 to 100, 0 no effect, 100 complete control, read-out: Plant response rating, Velvetleaf) was 90%, the pest or weed control at 250 g/ha ([7]; pre-emergence, Preemergence, scale 0 to 100 (0 no effect, 100 complete control), read-out: Plant response rating, Velvetleaf) was 100% and the plant injury at 62 g/ha ([8]; post-emergence, Postemergence, scale 0 to 100 (0 no effect, 100 complete control), read-out: Wheat plant response rating) was 30%. The plant injury at 250 g/ha ([8]; post-emergence, Postemergence, scale 0 to 100, read-out: Plant response rating, Wheat) was 70%, the plant injury at 62 g/ha [8, 15] was 30% and the plant injury at 250 g/ha [8, 15] was 60%. For the same compound, the pest or weed control at 62 g/ha ([9]; post-emergence, Postemergence, scale 0 to 100 (0 no effect, 100 complete control), read-out: Barnyardgrass plant response rating) was 50%, the pest or weed control at 250 g/ha ([9]; post-emergence, Postemergence, scale 0 to 100, read-out: Plant response rating, Barnyardgrass) was 90% and the pest or weed control at 62 g/ha [9, 16] was 60%. It also gave a pest or weed control at 250 g/ha [9, 16] of 90%, a pest or weed control at 62 g/ha ([10]; post-emergence, Postemergence, scale 0 to 100 (0 no effect, 100 complete control), read-out: Pigweed plant response rating) of 90% and a pest or weed control at 250 g/ha ([10]; post-emergence, Postemergence, scale 0 to 100, read-out: Plant response rating, Pigweed) of 100%. For the same compound, the pest or weed control at 62 g/ha ([10]; pre-emergence, Preemergence, scale 0 to 100, 0 no effect, 100 complete control, read-out: Plant response rating, Pigweed) was 90%, the pest or weed control at 250 g/ha ([10]; pre-emergence, Preemergence, scale 0 to 100 (0 no effect, 100 complete control), read-out: Plant response rating, Pigweed) was 100% and the pest or weed control at 62 g/ha ([11]; post-emergence, Postemergence, scale 0 to 100 (0 no effect, 100 complete control), read-out: Foxtail, Giant plant response rating) was 50%. The pest or weed control at 250 g/ha ([11]; post-emergence, Postemergence, scale 0 to 100, read-out: Plant response rating, Foxtail, Giant) was 80%, the pest or weed control at 250 g/ha ([11]; pre-emergence, Preemergence, scale 0 to 100 (0 no effect, 100 complete control), read-out: Plant response rating, Foxtail, Giant) was 90% and the pest or weed control at 62 g/ha ([11]; pre-emergence, Preemergence, scale 0 to 100, 0 no effect, 100 complete control, read-out: Plant response rating, Foxtail, Giant) was 30%. For the same compound, the pest or weed control at 62 g/ha ([12]; post-emergence, Postemergence, scale 0 to 100 (0 no effect, 100 complete control), read-out: Surinam Grass plant response rating) was 60%, the pest or weed control at 250 g/ha ([12]; post-emergence, Postemergence, scale 0 to 100, read-out: Plant response rating, Surinam Grass) was 90% and the pest or weed control at 250 g/ha ([12]; pre-emergence, Preemergence, scale 0 to 100 (0 no effect, 100 complete control), read-out: Plant response rating, Surinam Grass) was 80%. It also gave a pest or weed control at 62 g/ha ([12]; pre-emergence, Preemergence, scale 0 to 100, 0 no effect, 100 complete control, read-out: Plant response rating, Surinam Grass) of 50%, a pest or weed control at 62 g/ha ([13]; post-emergence, Postemergence, scale 0 to 100 (0 no effect, 100 complete control), read-out: Morningglory plant response rating) of 90% and a pest or weed control at 250 g/ha ([13]; post-emergence, Postemergence, scale 0 to 100, read-out: Plant response rating, Morningglory) of 100%. It also gave a pest or weed control at 62 g/ha ([13]; pre-emergence, Preemergence, scale 0 to 100, 0 no effect, 100 complete control, read-out: Plant response rating, Morningglory) of 90%, a pest or weed control at 250 g/ha ([13]; pre-emergence, Preemergence, scale 0 to 100 (0 no effect, 100 complete control), read-out: Plant response rating, Morningglory) of 100% and a pest or weed control at 62 g/ha ([14]; post-emergence, Postemergence, scale 0 to 100 (0 no effect, 100 complete control), read-out: Lambsquarters plant response rating) of 100%. The pest or weed control at 250 g/ha ([14]; post-emergence, Postemergence, scale 0 to 100, read-out: Plant response rating, Lambsquarters) was 100%, the pest or weed control at 62 g/ha ([14]; pre-emergence, Preemergence, scale 0 to 100, 0 no effect, 100 complete control, read-out: Plant response rating, Lambsquarters) was 100% and the pest or weed control at 250 g/ha ([14]; pre-emergence, Preemergence, scale 0 to 100 (0 no effect, 100 complete control), read-out: Plant response rating, Lambsquarters) was 100%. The plant injury at 62 g/ha (corn (Zea mays); post-emergence, Postemergence, 62 g ai/ha, scale 0 to 100 (0 no effect, 100 complete control), read-out: Corn plant response rating) was 30%, the Corn plant response rating (crop injury, 0 = no effect, 100 = complete kill) at 250 g/ha (corn (Zea mays); post-emergence, Postemergence, scale 0 to 100) was 70% and the Corn plant response rating (crop injury, 0 = no effect, 100 = complete kill) at 62 g/ha (corn (Zea mays); pre-emergence, Preemergence, 62 g ai/ha, scale 0 to 100, 0 no effect, 100 complete control) was 20%. The Corn plant response rating (crop injury, 0 = no effect, 100 = complete kill) at 250 g/ha (corn (Zea mays); pre-emergence, Preemergence, scale 0 to 100 (0 no effect, 100 complete control)) was 80%.
